≈ marks a conversion by molar mass, not a printed value.
Experiments:
Breast cancer cell MCF-7 = assay: Preliminary cytotoxicity test; format: cell-based, human
CNS cancer cell SF-268 = assay: Preliminary cytotoxicity test; format: cell-based, human
[1] = test system: Non-small cell Lung cancer cell NCI-H460; assay: Preliminary cytotoxicity test; format: cell-based, human
[2] = test system: Hela: human cervix epitheloid carcinoma; assay: In vitro anticancer assay (cytotoxicity), human solid tumor cells; details: for IC50: Homo sapiens, HeLa, read-out: IC50 Values of Cytotoxicities, Hela
[3] = test system: KB: human oral epidermoid carcinoma; assay: as above; details: for IC50: Homo sapiens, read-out: IC50 Values of Cytotoxicities, KB
[4] = test system: NCI (NCI-H661): human lung large cell carcinoma; assay: as above; details: for IC50: Homo sapiens, NCI-H661, read-out: IC50 Values of Cytotoxicities, NCI; for IC50 Values of Cytotoxicities, NCI: NCI (NCI-H661)
topoisomerase I = molecular target: T1, topoisomerase I (Homo sapiens, UniProt P11387); assay: Topoisomerase I course assay, cleavage of supercoiled pGEM9zf(−) DNA, gel electrophoresis; format: biochemical; details: for topo I inhibitor, overall finding: no concentration stated
T1 sequence (P11387 1-765): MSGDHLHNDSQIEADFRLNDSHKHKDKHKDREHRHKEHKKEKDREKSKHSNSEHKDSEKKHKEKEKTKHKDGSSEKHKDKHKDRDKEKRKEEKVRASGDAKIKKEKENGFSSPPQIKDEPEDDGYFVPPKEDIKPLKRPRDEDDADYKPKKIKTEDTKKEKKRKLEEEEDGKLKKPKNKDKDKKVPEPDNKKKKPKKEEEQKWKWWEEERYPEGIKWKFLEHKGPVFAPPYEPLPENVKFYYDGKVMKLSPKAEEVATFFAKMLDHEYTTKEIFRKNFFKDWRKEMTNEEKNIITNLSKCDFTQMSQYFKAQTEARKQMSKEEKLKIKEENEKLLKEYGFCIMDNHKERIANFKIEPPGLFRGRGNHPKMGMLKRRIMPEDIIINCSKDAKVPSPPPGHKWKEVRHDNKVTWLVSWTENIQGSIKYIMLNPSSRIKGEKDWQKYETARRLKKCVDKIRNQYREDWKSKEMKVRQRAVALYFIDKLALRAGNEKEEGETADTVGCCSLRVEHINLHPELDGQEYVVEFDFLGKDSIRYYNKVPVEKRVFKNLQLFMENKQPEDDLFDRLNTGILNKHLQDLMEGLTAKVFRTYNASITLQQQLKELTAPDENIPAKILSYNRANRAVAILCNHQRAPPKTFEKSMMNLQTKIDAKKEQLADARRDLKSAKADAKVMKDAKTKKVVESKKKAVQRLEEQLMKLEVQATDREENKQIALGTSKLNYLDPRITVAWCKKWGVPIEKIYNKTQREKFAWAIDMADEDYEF

[5] = test system: DLD (DLD-1): human colon adenocarcinoma; assay: In vitro anticancer assay (cytotoxicity), human solid tumor cells; details: for IC50: Homo sapiens, DLD-1, read-out: IC50 Values of Cytotoxicities, DLD
Hepa: human hepatoma = assay: as above; details: for IC50: Homo sapiens, HepA, read-out: IC50 Values of Cytotoxicities, Hepa

Molecule | IC50 [2] | IC50 [3] | IC50 [4] | IC50 [5] | IC50 (Hepa: human hepatoma) | IC50 Values of Cytotoxicities, Hela [2] | IC50 Values of Cytotoxicities, KB [3] | IC50 Values of Cytotoxicities, NCI [4] | IC50 Values of Cytotoxicities, DLD [5] | IC50 Values of Cytotoxicities, Hepa (Hepa: human hepatoma) | other results
2-(6-(2-thioanisyl)-3-hexen-1,5-diynyl)benzonitrile [Compound 31] |  |  |  |  |  |  |  |  |  |  | Growth percentage, Breast cancer cell MCF-7 (Breast cancer cell MCF-7): 62%; Growth percentage, CNS cancer cell SF-268 (CNS cancer cell SF-268): 164%; Growth percentage, Non-small cell Lung cancer cell NCI-H460 [1]: 100%
2-(6-(2-xylenyl)-3-hexen-1,5-diyne)benzonitrile [Compound 24] |  |  |  |  |  |  |  |  |  |  | Growth percentage, Breast cancer cell MCF-7 (Breast cancer cell MCF-7): 101%; Growth percentage, CNS cancer cell SF-268 (CNS cancer cell SF-268): 111%; Growth percentage, Non-small cell Lung cancer cell NCI-H460 [1]: 129%
CCCCC#C/C=C\C#Cc1ccccc1 [Compound 6, (3Z)-Decen-1,5-diynylbenzene] | > 20 µg/mL | 14.4 µg/mL (≈ 69.3 µM) | 7.35 µg/mL (≈ 35.3 µM) | > 20 µg/mL | > 20 µg/mL |  |  |  |  |  | topo I inhibitor, overall finding (topoisomerase I): not Topo I inhibitors
N#Cc1ccccc1C#Cc1ccccc1C#CCOC1CCCCO1 (stereo not drawn) [Compound 7, 2-(2-(3-Tetrahydro-pyranyl-5-oxy-1-propynylphenyl)ethynyl)benzonitrile] |  |  |  |  |  | — (“—” means IC50 >20 μg/ml) | — (“—” means IC50 >20 μg/ml) | — (“—” means IC50 >20 μg/ml) | — (“—” means IC50 >20 μg/ml) | — (“—” means IC50 >20 μg/ml) | 
N#Cc1ccccc1C#Cc1ccccc1C#CCCCOC1CCCCO1 (stereo not drawn) [Compound 8] |  |  |  |  |  | — (“—” means IC50 >20 μg/ml) | — (“—” means IC50 >20 μg/ml) | — (“—” means IC50 >20 μg/ml) | 11.65 µg/mL | — (“—” means IC50 >20 μg/ml) | 
CCCCC#Cc1ccccc1C#Cc1ccccc1C#N [Compound 9, 2-(2-(2-Hexynylphenyl)ethynyl)benzonitrile] |  |  |  |  |  | — (“—” means IC50 >20 μg/ml) | — (“—” means IC50 >20 μg/ml) | — (“—” means IC50 >20 μg/ml) | 8.98 µg/mL | — (“—” means IC50 >20 μg/ml) | inhibition of topo I (topoisomerase I; 0.87 μM compound): no supercoiled DNA observed; inhibition of topo I (topoisomerase I; 8.7 μM compound): no supercoiled DNA observed; inhibition of topo I (topoisomerase I; 87 μM compound): showed restraint of topo I
CCCCCC#Cc1ccccc1C#Cc1ccccc1C#N [Compound 10, 2-(2-(2-Heptynylphenyl)ethynyl)benzonitrile] |  |  |  |  |  | — (“—” means IC50 >20 μg/ml) | — (“—” means IC50 >20 μg/ml) | 9.22 µg/mL | 16.25 µg/mL | 5.13 µg/mL | inhibition of topo I (topoisomerase I; 0.87 μM compound): no inhibition of topo I; inhibition of topo I (topoisomerase I; 8.7 μM compound): displayed inhibitory activity against topo I; inhibition of topo I (topoisomerase I; 87 μM compound): displayed inhibitory activity against topo I
CCCCCCC#C/C=C\C#Cc1ccc(C#C/C=C\C#CCCCCCC)cc1 [Compound 11, 1,4-Bis-(3-(Z)-Dodecen-1,5-diynyl)benzene] | > 20 µg/mL | > 20 µg/mL | > 20 µg/mL | > 20 µg/mL | > 20 µg/mL |  |  |  |  |  | inhibition of topo I (topoisomerase I; 8.7 μM compound): No supercoiled DNA was observed; inhibition of topo I (topoisomerase I; 87 μM compound): No supercoiled DNA was observed; topo I inhibitor, overall finding (topoisomerase I): not topo I inhibitors
CCCCCCC#C/C=C\C#Cc1ccc(-c2ccc(C#C/C=C\C#CCCCCCC)cc2)cc1 [Compound 12, 4,4′-Bis-(3-(Z)-Dodecen-1,5-diynyl)biphenyl] | > 20 µg/mL | 5.57 µg/mL (≈ 11.8 µM) | > 20 µg/mL | > 20 µg/mL | > 20 µg/mL |  |  |  |  |  | inhibition of topo I (topoisomerase I; 8.7 μM compound): No supercoiled DNA was observed; inhibition of topo I (topoisomerase I; 87 μM compound): No supercoiled DNA was observed; topo I inhibitor, overall finding (topoisomerase I): not topo I inhibitors
CCCCCCC#C/C=C\C#Cc1ccc(C#N)cc1 [Compound 14, 4-(3-(Z)-Dodecen-1,5-diynyl)benzonitrile] | > 20 µg/mL | > 20 µg/mL | > 20 µg/mL | 11.9 µg/mL (≈ 45.6 µM) | > 20 µg/mL |  |  |  |  |  | 
CCCCCCC#C/C=C\C#Cc1ccccn1 [Compound 15, 2-(3-(Z)-Dodecen-1,5-diynyl)pyridine] | > 20 µg/mL | > 20 µg/mL | > 20 µg/mL | 5.15 µg/mL (≈ 21.7 µM) | > 20 µg/mL |  |  |  |  |  | 
CCCCCCC#C/C=C\C#Cc1cccs1 [Compound 16, 2-(3-(Z)-Dodecen-1,5-diynyl)thiophene] | > 20 µg/mL | > 20 µg/mL | > 20 µg/mL | 6.75 µg/mL (≈ 27.8 µM) | > 20 µg/mL |  |  |  |  |  | 
CCCCCCC#C/C=C\C#Cc1cnccn1 [Compound 17, 2-(3-(Z)-Dodecen-1,5-diynyl)pyrazine] | 5.3 µg/mL (≈ 22.2 µM) | 5.93 µg/mL (≈ 24.9 µM) | 9.43 µg/mL (≈ 39.6 µM) | 3.89 µg/mL (≈ 16.3 µM) | 12.3 µg/mL (≈ 51.8 µM) |  |  |  |  |  | 
CCCCCCC#C/C=C\C#Cc1ccc(C(F)(F)F)cc1 [Compound 18, 4-(3-(Z)-Dodecen-1,5-diynyl)trifluoromethylbenzene] |  |  |  |  |  | 5.86 µg/mL | 4.32 µg/mL | 11.15 µg/mL | 5.71 µg/mL | 17.08 µg/mL | inhibition of topo I (topoisomerase I; 87 μM compound): displayed inhibitory activities of topo I
CCCCCCC#C/C=C\C#Cc1cccc(C(F)(F)F)c1 [Compound 19, 3-(3-(Z)-Dodecen-1,5-diynyl)trifluoromethylbenzene] |  |  |  |  |  | — (“—” means IC50 >20 μg/ml) | 6.74 µg/mL | 7.73 µg/mL | 7.05 µg/mL | 14.39 µg/mL | 
CCCCCCC#C/C=C\C#Cc1ccccc1C(F)(F)F [Compound 20, 2-(3-(Z)-Dodecen-1,5-diynyl)trifluoromethylbenzene] |  |  |  |  |  | 2.15 µg/mL | 19.65 µg/mL | 5.02 µg/mL | 8.91 µg/mL | 12.24 µg/mL | 
CCCCCCC#C/C=C\C#Cc1ccc([N+](=O)[O-])cc1 [Compound 21, 4-nitro-1-(3-(Z)-dodecen-1,5-diynyl)benzene] | > 20 µg/mL | 13 µg/mL (≈ 46.2 µM) | > 20 µg/mL | 1.66 µg/mL (≈ 5.9 µM) | > 20 µg/mL |  |  |  |  |  | 
CCCCCCC#C/C=C\C#Cc1ccccc1C(=O)O [Compound 22, 2-(3-(Z)-Dodecen-1,5-diynyl)benzoate] |  |  |  |  |  | — (“—” means IC50 >20 μg/ml) | — (“—” means IC50 >20 μg/ml) | — (“—” means IC50 >20 μg/ml) | 7.27 µg/mL | — (“—” means IC50 >20 μg/ml) | 
Cc1ccc(C#CC=CC#Cc2ccccc2C#N)cc1 [Compound 28, 2-(6-(4-tolyl)-3-hexen-1,5-diynyl)benzonitrile] |  |  |  |  |  |  |  |  |  |  | Growth percentage, Breast cancer cell MCF-7 (Breast cancer cell MCF-7): 80%; Growth percentage, CNS cancer cell SF-268 (CNS cancer cell SF-268): 105%; Growth percentage, Non-small cell Lung cancer cell NCI-H460 [1]: 96%
N#Cc1ccccc1C#CC=CC#Cc1cccs1 [Compound 29, 2-(6-(2-thienyl)-3-hexen-1,5-diynyl)benzonitrile] |  |  |  |  |  |  |  |  |  |  | Growth percentage, Breast cancer cell MCF-7 (Breast cancer cell MCF-7): 49%; Growth percentage, CNS cancer cell SF-268 (CNS cancer cell SF-268): 96%; Growth percentage, Non-small cell Lung cancer cell NCI-H460 [1]: 34%
N#Cc1ccccc1C#CC=CC#Cc1ccc(N)cc1 [Compound 33, 2-[6-(p-anilinyl)-3-hexen-1,5-diynyl]benzonitrile] |  |  |  |  |  |  |  |  |  |  | Growth percentage, Breast cancer cell MCF-7 (Breast cancer cell MCF-7): 100%; Growth percentage, CNS cancer cell SF-268 (CNS cancer cell SF-268): 92%; Growth percentage, Non-small cell Lung cancer cell NCI-H460 [1]: 94%
CC[C@@]1(O)C(=O)OCc2c1cc1n(c2=O)Cc2cc3ccccc3nc2-1 [camptothecin, reference compound] |  |  |  |  |  |  |  |  |  |  | inhibition of topo I (topoisomerase I; 26.1 μM): less topo I inhibitory activity; inhibition of topo I (topoisomerase I; 43.5 μM): observable inhibition of topo I
